These results are taken from patent US8912188B2, “Substituted quinoxaline carboxylic acids for the inhibition of PASK” (BioEnergenix, LLC, priority 2011, dated 2014).

T1 sequence (Q96RG2 999-1251 limits assumed): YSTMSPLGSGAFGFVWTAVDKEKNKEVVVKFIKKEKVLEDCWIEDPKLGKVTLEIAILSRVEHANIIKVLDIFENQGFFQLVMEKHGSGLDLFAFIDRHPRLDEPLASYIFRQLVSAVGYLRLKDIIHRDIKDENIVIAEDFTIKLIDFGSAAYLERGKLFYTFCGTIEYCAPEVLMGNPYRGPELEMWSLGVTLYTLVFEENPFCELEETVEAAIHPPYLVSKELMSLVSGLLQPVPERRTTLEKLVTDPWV

This test addresses T1, PASK (Invitrogen) (Homo sapiens, UniProt Q96RG2).
T1 construct: IC50 Kinase Domain; purchased Invitrogen
Nature of the test: PAS Kinase FRET Assay. It counts as biochemical. The note with it: PAS kinase TR-FRET assay (665 nm/615 nm), 2 hours at 25° C.; read-out: IC50 Kinase Domain. The source says:
Biochemical Assay for hPASK Activity
The aim of the FRET assay is to determine the inhibition potential of test compounds on targeted kinase. This assay platform provides a homogenous screening method for measuring kinase activity by quantitating the amount of phospho-substrate in solution following a kinase reaction.
In the presence of kinase and ATP, the Ulight-peptide is phosphorylated and captured by an anti-phospho-substrate antibody, which brings the Eu chelate donor and Ulight acceptor dyes into close proximity.
Titration of kinase at 1 mM ATP was achieved via the following protocol. […] The contents of the plate were incubated at RT for 1 h. The reaction was stopped by adding 5 μl of stop solution to each test well followed by mixing and incubation at RT for 10 minutes. 5 μl of detection mix (detection antibody diluted in detection buffer) was added; the contents of the plate were mixed and then incubated in the dark for 1 hour at RT. […] The results were graphed to calculate the EC50.
Titration of ATP at the EC50 concentration of kinase to determine ATP Km,app. was performed using the following method. […] The contents of the plate were and incubated at RT for 1 h. The reaction was stopped by adding 5 μl of stop solution to each test well followed by mixing and incubation at RT for 10 minutes. […] (detection antibody diluted in detection buffer) was added; the contents of the plate were mixed and then incubated in the dark for 1 hour at RT. […] The results were graphed to calculate the EC50 as the ATP Km,app.
Compound screening was done via the following method. 10 mM stock solution of test compound in DMSO was prepared by dissolving test compound in DMSO at RT for 1 hour, and then sonicating at 100% output for 8 minutes. If compound is not soluble under this condition, it was diluted to 3 mM. Kinase reaction buffer was prepared containing 10 mM MgCl2, 50 mM HEPES, 1 mM EGTA, 0.01% TWEEN-20, 2 mM DTT. […] As a positive control, 2.5 μl of positive compound was added to assay wells, and 2.5 μl of DMSO to assay wells as vehicle control. Kinase solution was prepared in reaction buffer at 2× final assay concentration. Kinase solution (5 μl) was added to each well of the assay plate. The substrate and ATP solution was prepared in kinase reaction buffer at 4× final assay concentration. The kinase reaction was started by adding 2.5 μl of substrate+ATP mix solution to each well of the assay plate. The plate is mixed on a plate shaker; then covered and allowed to react for 2 hours in the dark at 25° C. without shaking. The reaction was stopped by adding 5 μl of stop solution to each test well followed by mixing and incubation at RT for 10 minutes in the dark. 5 μl of detection mix (detection antibody diluted in detection buffer) was added; the contents of the plate were mixed and then incubated in the dark for 1 hour at RT.
Consider `CC(C)N(C)c1nc2cc(C(=O)O)ccc2nc1-c1ccc2c(c1)OC(F)(F)O2` [Example 42, 2-(2,2-Difluorobenzo[d][1,3]dioxol-5-yl)-3-(isopropyl(methyl)amino)quinoxaline-6-carboxylic acid], for which the IC50 was less than 10 µM.

`CC(C)N(C)c1nc2cc(C(=O)O)ccc2nc1-c1ccn[nH]1` [Example 43, 3-(Isopropyl(methyl)amino)-2-(1H-pyrazol-5-yl)quinoxaline-6-carboxylic acid]: the IC50 was less than 10 µM.

Turning to `CC(C)N(C)c1nc2cc(C(=O)O)ccc2nc1-c1ccc2ncccc2c1` [Example 46, 3-(Isopropyl(methyl)amino)-2-(quinolin-6-yl)quinoxaline-6-carboxylic acid], the IC50 was less than 10 µM.

As for `C[C@H]1CCCN1c1nc2cc(C(=O)O)ccc2nc1-c1ccc2[nH]ncc2c1` [Example 47, 2-(1H-Indazol-5-yl)-3-[(2S)-2-methylpyrrolidin-1-yl]quinoxaline-6-carboxylic acid], the concentration for half-maximal inhibition (IC50) is less than 10 µM.

As for `CN(c1nc2cc(C(=O)O)ccc2nc1-c1cc2ccc(F)cc2o1)C1CC1` [Example 49, 3-(Cyclopropyl(methyl)amino)-2-(6-fluorobenzofuran-2-yl)quinoxaline-6-carboxylic acid], the IC50 was less than 10 µM.

For `CC(C)N(C)c1nc2cc(C(=O)O)ccc2nc1-c1ccc2oncc2c1` [Example 50, 2-(1,2-Benzoxazol-5-yl)-3-[methyl(propan-2-yl)amino]quinoxaline-6-carboxylic acid], the IC50 was less than 10 µM.

In the case of `O=C(O)c1ccc2nc(-c3cc4ccccc4s3)c(N3CCCCC3)nc2c1` [Example 53, 2-(Benzo[b]thiophen-2-yl)-3-(piperidin-1-yl)quinoxaline-6-carboxylic acid], the IC50 was less than 10 µM.

`O=C(O)c1ccc2nc(-c3cc4ccccc4s3)c(N3CCCCCC3)nc2c1` [Example 54, 3-(Azepan-1-yl)-2-(benzo[b]thiophen-2-yl)quinoxaline-6-carboxylic acid]: the IC50 was less than 10 µM.

In the case of `CC(C)N(C)c1nc2cc(C(=O)O)ccc2nc1-c1ccc2scnc2c1` [Example 56, 2-(Benzo[d]thiazol-5-yl)-3-(isopropyl(methyl)amino)quinoxaline-6-carboxylic acid], the IC50 is less than 10 µM.

Consider `CC(C)N(C)c1nc2cc(C(=O)O)ccc2nc1-c1nc2ccccc2s1` [Example 58, 2-(1,3-Benzothiazol-2-yl)-3-[methyl(propan-2-yl)amino]quinoxaline-6-carboxylic acid], for which the 50% inhibitory concentration (IC50) is less than 10 µM.

For the compound `C[C@H]1CCCN1c1nc2cc(C(=O)O)ccc2nc1-c1nc2ccccc2s1` [Example 59, 2-(1,3-Benzothiazol-2-yl)-3-[(2S)-2-methylpyrrolidin-1-yl]quinoxaline-6-carboxylic acid], the IC50 is less than 10 µM.

Take `CC(C)N(C)c1nc2cc(C(=O)O)ccc2nc1-c1ccc2nccnc2c1` [Example 60, 3-(isopropyl(methyl)amino)-2,7′-biquinoxaline-6-carboxylic acid]: the IC50 is less than 10 µM.

As for `O=C(O)c1ccc2nc(-c3cc4cc(F)ccc4o3)c(N3CCCC3)nc2c1` [Example 62, 2-(5-Fluoro-1-benzofuran-2-yl)-3-(pyrrolidin-1-yl)quinoxaline-6-carboxylic acid], the IC50 is less than 10 µM.

With `O=C(O)c1ccc2nc(-c3ccc4[nH]ccc4c3)c(N3CCCCC3)nc2c1` [Example 65, 2-(1H-Indol-5-yl)-3-(piperidin-1-yl)quinoxaline-6-carboxylic acid], the IC50 is less than 10 µM.

Take `COC[C@H]1CCCN1c1nc2cc(C(=O)O)ccc2nc1-c1ccc2[nH]ccc2c1` [Example 67, 2-(1H-Indol-5-yl)-3-[(2R)-2-(methoxymethyl)pyrrolidin-1-yl]quinoxaline-6-carboxylic acid]: the IC50 was less than 10 µM.

As to `CC(C)Nc1nc2cc(C(=O)O)ccc2nc1-c1cc2ccccc2o1` [Example 70, 2-(1-Benzofuran-2-yl)-3-[(propan-2-yl)amino]quinoxaline-6-carboxylic acid], the concentration for half-maximal inhibition (IC50) is less than 10 µM.

Regarding `C[C@H]1CCCN1c1nc2cc(C(=O)O)ccc2nc1-c1ccoc1` [Example 78, 2-(Furan-3-yl)-3-[(2S)-2-methylpyrrolidin-1-yl]quinoxaline-6-carboxylic acid], the IC50 was less than 10 µM.

Regarding `C[C@H]1CCCN1c1nc2cc(C(=O)O)ccc2nc1-c1coc2ccccc12` [Example 82, 2-(1-Benzofuran-3-yl)-3-[(2S)-2-methylpyrrolidin-1-yl]quinoxaline-6-carboxylic acid], the 50% inhibitory concentration (IC50) is less than 10 µM.

For the compound `CC(C)N(C)c1nc2cc(C(=O)O)ccc2nc1-c1occc1-c1ccccc1` [Example 83, 3-[Methyl(propan-2-yl)amino]-2-(3-phenylfuran-2-yl)quinoxaline-6-carboxylic acid], the IC50 was less than 10 µM.

With `CC(C)N(C)c1nc2cc(C(=O)O)ccc2nc1-c1ccc(-c2ccc(F)cc2)o1` [Example 84, 2-[5-(4-Fluorophenyl)furan-2-yl]-3-[methyl(propan-2-yl)amino]quinoxaline-6-carboxylic acid], the IC50 was less than 10 µM.

In the case of `CC(C)N(C)c1nc2cc(C(=O)O)ccc2nc1-c1cnn(C)c1` [Example 90, 3-[Methyl(propan-2-yl)amino]-2-(1-methyl-1H-pyrazol-4-yl)quinoxaline-6-carboxylic acid], the IC50 is less than 10 µM.

With `CC(C)N(C)c1nc2cc(C(=O)O)ccc2nc1-c1cnn(-c2ccccc2)c1` [Example 91, 3-[Methyl(propan-2-yl)amino]-2-(1-phenyl-1H-pyrazol-4-yl)quinoxaline-6-carboxylic acid], the half-maximal inhibitory concentration (IC50) was less than 10 µM.

`C[C@H]1CN(c2ccccn2)CCN1c1nc2cc(C(=O)O)ccc2nc1-c1ccc2[nH]ncc2c1` [Example 92, (S)-2-(1H-indazol-5-yl)-3-(2-methyl-4-(pyridin-2-yl)piperazin-1-yl)quinoxaline-6-carboxylic acid]: the half-inhibitory concentration (IC50) was less than 10 µM.

For the compound `CC(C)N(C)c1nc2cc(C(=O)O)ccc2nc1-c1ccc2[nH]nnc2c1` [Example 94, 2-(1H-Benzo[d][1,2,3]triazol-5-yl)-3-(isopropyl(methyl)amino)quinoxaline-6-carboxylic acid], the IC50 is less than 10 µM.

As for `CC(C)N(C)c1nc2cc(C(=O)O)ccc2nc1-c1ccc2c(c1)nnn2C` [Example 95, 3-(Isopropyl(methyl)amino)-2-(1-methyl-1H-benzo[d][1,2,3]triazol-5-yl)quinoxaline-6-carboxylic acid], the IC50 was more than 10 µM.

For the compound `C[C@H]1CCCN1c1nc2cc(C(=O)O)ccc2nc1-c1ccc2[nH]nnc2c1` [Example 96, (S)-2-(1H-Benzo[d][1,2,3]triazol-5-yl)-3-(2-methylpyrrolidin-1-yl)quinoxaline-6-carboxylic acid], the IC50 is less than 10 µM.

As for `CN(Cc1ccccc1)c1nc2cc(C(=O)O)ccc2nc1-c1ccc2[nH]ncc2c1` [Example 97, 3-(Benzyl(methyl)amino)-2-(1H-indazol-5-yl)quinoxaline-6-carboxylic acid], the IC50 was less than 10 µM.

For `C[C@@H](c1ccccc1)N(C)c1nc2cc(C(=O)O)ccc2nc1-c1ccc2[nH]ncc2c1` [Example 98, (S)-2-(1H-Indazol-5-yl)-3-(methyl(1-phenylethyl)amino)quinoxaline-6-carboxylic acid], the IC50 is less than 10 µM.

Regarding `Cc1cc2cc(-c3nc4ccc(C(=O)O)cc4nc3N3CCN(c4ccccn4)C[C@@H]3C)ccc2[nH]1` [Example 99, (S)-2-(2-Methyl-1H-indol-5-yl)-3-(2-methyl-4-(pyridin-2-yl)piperazin-1-yl)quinoxaline-6-carboxylic acid], the IC50 was less than 10 µM.

With `O=C(O)c1ccc2nc(-c3ccc(F)cc3)c(N3CCC[C@@H]3C(F)(F)F)nc2c1` [Example 101, (R)-2-(4-Fluorophenyl)-3-(2-(trifluoromethyl)pyrrolidin-1-yl)quinoxaline-6-carboxylic acid], the IC50 was less than 10 µM.

`CN(c1nc2cc(C(=O)O)ccc2nc1-c1ccc(F)cc1)C1CCOCC1` [Example 102, 2-(4-Fluorophenyl)-3-(methyl(tetrahydro-2H-pyran-4-yl)amino)quinoxaline-6-carboxylic acid]: the IC50 was less than 10 µM.

Take `CN(c1nc2cc(C(=O)O)ccc2nc1-c1ccc(F)cc1)C1CCNCC1` [Example 103, 2-(4-Fluorophenyl)-3-(methyl(piperidin-4-yl)amino)quinoxaline-6-carboxylic acid]: the IC50 is less than 10 µM.

A word on the IC50: it is the midpoint of a concentration-inhibition curve.
